# Reference: patent US20210261594A1, “USE OF AVERMECTIN DERIVATIVE FOR INCREASING BIOAVAILABILITY AND EFFICACY OF MACROCYLIC LACTONES” (INSTITUT NATIONAL DE RECHERCHE POUR L'AGRICULTURE, …, priority 2011, published 2021)
# Where two headings read alike, the source gives them in different places. *1 amine or outer side, *2 acyl side, *3 side chain or, on linkers, in order; H or OH if unused. Where a SMILES comes first, the peptide text is derived from it. Bridges are numbered along the chain shown (N, C = ends). Roman numbers before positions name the chains, in order. [ ]: non-standard residue; d: D form. Actinocin(9to1) = Cc1c2oc3c(C)ccc(C(=O)[*:1])c3nc-2c(C(=O)[*:2])c(N)c1=O; NMeV = CN[C@H](C(=O)O)C(C)C; Sar = CNCC(=O)O
# Assays:
# [1] = system: Caenorhabditis elegans resistant to ivermectin (IVR10); experiment: Ivermectin resistance gravid assay in Caenorhabditis elegans IVR10; type: in vivo; conditions: for RF: C. elegans IVR10, IC50 IVM alone / IC50 IVM with reversal agent; for effect of the agent alone on the development of C. elegans: verapamil at 8 μM, IVM-Agly at 10 ng/ml
# Procedure: A gravid assay method, based on the development of eggs to gravid adults over a 96 hr incubation period, was used to determine the resistance with respect to ivermectin (IVM) in C. elegans. The eggs were collected through rinsing the C. elegans worms resistant to IVM (IVR10). Sixty eggs were incubated/well, in standard conditions for four days (96 hours) in order reach adulthood (gravid) in the presence of drugs as followed: ivermectin aglycone (IVM-Agly) alone at 10 ng/ml (11.4 nM); verapamil (VRP) alone at 8 μM; IVM alone: […]; IVM+VRP 8 μM: 0, 1, 2, 4, 6, 8, 10, 20 ng/ml IVM; IVM+IVM-Agly 10 ng/ml: 0, 1, 2, 4, 6, 8, 10, 20 ng/ml ([…]) IVM. Assays were performed in triplicates per condition treatment and the experiment was performed 3 times.
# murine Pgp (mdr1a) = biological target: T1, murine Pgp (mdr1a) (Mus musculus, UniProt P21447); experiment: Rhodamine 123 transport test in LLC-PK1-mdr1a cells overexpressing murine Pgp; type: cell-based; conditions: LLCPK1-mdr1a cells; for Cmax: concentration to obtain maximum inhibitory effect / Emax: maximum effect compared to maximum effect obtained with 5 μM of valspodar: rhodamine 123
# T1 construct: expressed in transfected cells; host or cells: LLC-PK1 pig kidney epithelial cells (LLC-PK1-mdr1a), available in the INRA laboratory
# Procedure: (§1) The cells used were LLC-PK1, pig kidney epithelial cell lines, and LLC-PK1-mdr1a which are recombinant LLC-PK1 cells overexpressing murine abcb1a gene. All cell lines are available in INRA laboratory. The transfected cell line LLC-PK1-HcPgpA, which overexpress nematode Haemonchus contortus PgpA, was developed by R. Prichard (McGill University). Cells were cultured in medium 199 supplemented with penicillin (100 units/ml), streptomycin ([…]), 10% of foetal calf serum and geneticin G418 (400 mg/1) as selecting compound for the LLC-PKI-mdr1a and LLC-PK1-HcPgpA cells. All compounds and medium are from Invitrogen, Cergy Pontoise, France. Cells were seeded on 24-well plates (Sarstedt, Orsay, France) at 2×10^5 cells/well in G418-free medium until confluence for transport activity and on 96-well plates for viability assay.
# (§2) Cells were cultured with rhodamine 123 (10 μM, purchased from Sigma) with or without valspodar (VSP, […]). Compounds of interest were dissolved in DMSO and diluted in the medium (final DMSO concentration=0.1%) in a concentration range of 0.1-50 μM. After the 2-h incubation period, the cells were lysed and lysates were stored at −20° C. until analysis. To study the Pgp transport activity, the intracellular accumulation of fluorescent Rho 123 was determined by reading fluorescence in the cell lysates with a spectrofluorimeter (PerkinElmer LS50B, max excitation=507 nm; max emission=529 nm). Protein concentration was determined in lysates with BCA kit using bovine serum albumin as protein standard (Thermo scientific) Results were expressed as fluorescence arbitrary units after normalization to cellular protein content per well.
# [2] = biological target: nematode Haemonchus contortus PgpA (HcPgpA) (Haemonchus contortus, UniProt O61301); experiment: Rhodamine 123 transport test in LLC-PK1-HcPgpA cells overexpressing nematode Pgp; type: cell-based; conditions: for EC50: LLC-PK1-HcPgpA cells, read-out: EC50, concentration of half inhibitory effect, Nematode PgpA
# Procedure: as §1, §2
# [3] = biological target: T2, rat GABA(A) receptor (α1, β2 and γ2 subunits) (Rattus norvegicus, UniProt P18508+P62813+P63138); experiment: GABA receptor affinity test, two-electrode voltage clamp in Xenopus oocytes; type: cell-based; conditions: for EC50: co-application with 2 μM GABA (EC10), Xenopus oocytes, read-out: EC50: concentration needed to induce half of the maximal potentiation of GABA effect; for agonist strength at GABA receptors, in words: compared to ivermectin
# T2 construct: expressed in transfected cells; host or cells: Xenopus laevis oocytes injected with RNA
# Procedure: The ability of ivermectin or moxidectin or ivermectin aglycone or ivermectin monosaccharide to interact with GABA receptors is assayed by electrophysiology measurements. Xenopus laevis oocytes are injected with 46 nl of RNA solution, with RNA coding for α1, β2 and γ2 subunits of the GABA channel at a ratio of 10:10:50 nM. The injected oocytes are incubated in modified Barth's solution [90 mM NaCl, 3 mM KCl, 0.82 mM MgSO4, 0.41 mM CaCl2, 0.34 mM Ca(NO3)2, 100 U/ml penicillin, 100 μg/ml streptomycin and 100 μg/ml kanamycin, 5 mM HEPES pH 7.6] at 18° C. for approximately 36 h before the measurements to ensure the expression of a functional receptor.
# Electrophysiological experiments are performed by the two-electrode voltage-clamp method. Measurements were done in ND96 medium containing 96 mM NaCl, 2 mM KCl, 1 mM […], 1.8 mM CaCl2 and 5 mM HEPES, pH 7.5, at a holding potential of −80 mV. The control current is evoked by the application of 2 μM GABA and the normalized relative potentiation of 2 μM GABA-evoked currents by increasing concentration of ivermectin, moxidectin, ivermectin aglycone, or ivermectin monosaccharide is determined as:
# [(IMLs+2 μM GABA/I2 μM GABA alone)/(I(MLs+2 μM GABA)Max/I2 μM GABA alone)]×100%
# where I2 μM GABA is the control current evoked by 2 μM GABA, IMLs+2 μM GABA is the current evoked by each drug concentration in co-applications with 2 μM GABA, and I(MLs+2 μM GABA)Max is the maximal current evoked by co-applications of drugs and 2 μM GABA. A washout period of 4 min between each GABA application is introduced, allowing receptors to recover from desensitization. Three different batches of oocytes are used to collect data for each analysis. The perfusion system is cleaned between two experiments by washing with 10% DMSO after application of MLs derivatives to avoid contamination.
# [4] = system: multidrug resistant cells DC-3F/ADX; experiment: Reversal of actinomycin D resistance in DC-3F/ADX cells, MTT test; type: cell-based, Chinese hamster; conditions: for RF (IC50 for toxic drug alone/IC50 for toxic drug in the presence of compound): ActD; for RF (IC50 for toxic drug alone/IC50 for toxic drug in the presence of compound) / toxicity of actinomycin D when combined with the compound: compound at 5 μM
# From the text: (§3) Multidrug resistant tumor cells used in the present invention were Human lymphoma parental CEM and vinblastine-resistant CEM/VLB (Zordan-Nudpo et al., 1993) and parental […] and multidrug resistant cells DC-3F/ADX selected from spontaneously transformed DC-3F Chinese hamster lung fibroblasts on the basis of their resistance to actinomycin D (Biedler and Riehm, 1970). Both types of resistant cells overexpressed Pgp.
# (§4) CEM/VLB cells and DC-3F/ADX cells described in aforementioned part 1.3 were plated into 96 well plates and allowed to grow for 24 h. They were then incubated 4 days with vinblastine (concentration range 0-1 μM) with or without IVM at 2.5 μM or ivermectin aglycone (IVM-Agly) at 2.5 and at 5 μM (FIG. 7); or 2 days with actinomycin D with actinomycin (concentration range 0.01-10 μM) with or without ivermectin (IVM) or ivermectin aglycone (IVM-Agly) at 5 μM (FIG. 8). Cytotoxicity was determined using the MTT test. IC50 values were graphically determined and they represent the concentration needed for half cell survival. Fold reversal of multidrug resistance called reversion factors were the ratio of IC50 for toxic drug alone/IC50 for toxic drug in the presence of IVM-Agly.
# [5] = system: vinblastine-resistant CEM/VBL cells; experiment: Reversal of vinblastine resistance in CEM/VBL cells, MTT test; type: cell-based, Human; conditions: 1 μM vinblastine
# From the text: as §3, §4
# [6] = system: Human lymphoma parental CEM cells; experiment: Vinblastine cytotoxicity in parental CEM cells, MTT test; type: cell-based; conditions: at concentrations below 0.001 μM
# From the text: as §3, §4
# Mdr1ab−/− mice = experiment: In vivo toxicity test in Pgp-deficient mice; conditions: mouse, sc
# Procedure: Wild-type and the Pgp knock-out mdr1ab^−/− mice with a FVB genetic background were obtained from Taconic (NY, USA). In rodents, there are two Pgps encoded by abc1a and abc1b genes and mdr1ab^−/− mice were deficient for the two gene products. Mice were housed at INRA's transgenic rodent facility at 22±2° C. under 12-hour light/dark cycles. Animals sampling was designed to reduce the influence of interfering parameters such as litter specificity (seven to nine different litters for a ten animals group). Mice received a standard chow diet recommended for the breeding and rearing of rodents (Harlan Teklad TRM Rat/Mouse Diet; Harlan Teklad, Gannat, France). Water and food were available ad libitum. In vivo studies were conducted in mice under European laws on the protection of animals and protocols are performed under procedure and principal for good clinical practice.
# Toxicity of ivermectin and ivermectin aglycone is measured in Pgp-deficient mice. Mdr1ab^−/− mice are injected subcutaneously with increasing doses of ivermectin or ivermectin aglycone formulated in propylene glycol/[…] (60:40, v/v). Higher injected doses are 1.5 mg/kg (1.7 μmol/kg) for ivermectin and 16 mg/kg (27 μmol/kg) for ivermectin aglycone, respectively. Toxicity is evaluated during 24 h. […]
# [7] = Table 2, read-out: EC50, concentration of half inhibitory effect, Murine Pgp
# Sequence of nematode Haemonchus contortus PgpA (HcPgpA) (O61301 entry or part of it): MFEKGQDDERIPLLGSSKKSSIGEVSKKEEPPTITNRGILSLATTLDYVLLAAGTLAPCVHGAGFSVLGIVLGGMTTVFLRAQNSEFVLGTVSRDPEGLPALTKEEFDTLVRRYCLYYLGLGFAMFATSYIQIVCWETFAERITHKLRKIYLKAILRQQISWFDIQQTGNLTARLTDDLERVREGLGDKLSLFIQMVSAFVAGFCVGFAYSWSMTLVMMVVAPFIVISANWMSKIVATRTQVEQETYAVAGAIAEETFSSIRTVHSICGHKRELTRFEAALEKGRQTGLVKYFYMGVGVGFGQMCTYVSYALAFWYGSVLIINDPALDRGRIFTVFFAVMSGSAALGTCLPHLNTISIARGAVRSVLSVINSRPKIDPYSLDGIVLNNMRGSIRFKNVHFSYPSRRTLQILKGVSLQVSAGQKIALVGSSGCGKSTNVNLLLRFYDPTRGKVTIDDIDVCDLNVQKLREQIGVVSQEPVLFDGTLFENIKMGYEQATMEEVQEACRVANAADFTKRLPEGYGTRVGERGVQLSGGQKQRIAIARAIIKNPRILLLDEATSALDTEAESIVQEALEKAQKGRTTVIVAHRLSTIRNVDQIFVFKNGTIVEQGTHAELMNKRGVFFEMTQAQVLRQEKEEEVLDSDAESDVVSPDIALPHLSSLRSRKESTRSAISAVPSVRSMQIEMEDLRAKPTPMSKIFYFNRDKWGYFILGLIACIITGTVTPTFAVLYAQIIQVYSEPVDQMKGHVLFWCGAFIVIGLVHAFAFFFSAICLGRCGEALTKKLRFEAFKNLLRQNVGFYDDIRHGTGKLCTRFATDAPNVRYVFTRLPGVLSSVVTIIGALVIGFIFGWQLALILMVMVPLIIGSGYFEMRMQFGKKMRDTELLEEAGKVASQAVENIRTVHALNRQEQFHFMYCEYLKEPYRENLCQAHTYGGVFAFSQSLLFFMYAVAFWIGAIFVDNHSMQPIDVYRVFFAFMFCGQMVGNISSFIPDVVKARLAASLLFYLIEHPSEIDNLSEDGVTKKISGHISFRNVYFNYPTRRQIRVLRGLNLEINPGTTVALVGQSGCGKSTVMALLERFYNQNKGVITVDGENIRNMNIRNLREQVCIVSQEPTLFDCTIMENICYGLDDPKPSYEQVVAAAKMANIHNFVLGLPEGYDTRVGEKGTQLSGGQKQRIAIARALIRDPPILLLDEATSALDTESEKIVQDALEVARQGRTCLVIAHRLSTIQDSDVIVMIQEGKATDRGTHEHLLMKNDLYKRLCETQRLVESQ
# T1 sequence (P21447 whole entry): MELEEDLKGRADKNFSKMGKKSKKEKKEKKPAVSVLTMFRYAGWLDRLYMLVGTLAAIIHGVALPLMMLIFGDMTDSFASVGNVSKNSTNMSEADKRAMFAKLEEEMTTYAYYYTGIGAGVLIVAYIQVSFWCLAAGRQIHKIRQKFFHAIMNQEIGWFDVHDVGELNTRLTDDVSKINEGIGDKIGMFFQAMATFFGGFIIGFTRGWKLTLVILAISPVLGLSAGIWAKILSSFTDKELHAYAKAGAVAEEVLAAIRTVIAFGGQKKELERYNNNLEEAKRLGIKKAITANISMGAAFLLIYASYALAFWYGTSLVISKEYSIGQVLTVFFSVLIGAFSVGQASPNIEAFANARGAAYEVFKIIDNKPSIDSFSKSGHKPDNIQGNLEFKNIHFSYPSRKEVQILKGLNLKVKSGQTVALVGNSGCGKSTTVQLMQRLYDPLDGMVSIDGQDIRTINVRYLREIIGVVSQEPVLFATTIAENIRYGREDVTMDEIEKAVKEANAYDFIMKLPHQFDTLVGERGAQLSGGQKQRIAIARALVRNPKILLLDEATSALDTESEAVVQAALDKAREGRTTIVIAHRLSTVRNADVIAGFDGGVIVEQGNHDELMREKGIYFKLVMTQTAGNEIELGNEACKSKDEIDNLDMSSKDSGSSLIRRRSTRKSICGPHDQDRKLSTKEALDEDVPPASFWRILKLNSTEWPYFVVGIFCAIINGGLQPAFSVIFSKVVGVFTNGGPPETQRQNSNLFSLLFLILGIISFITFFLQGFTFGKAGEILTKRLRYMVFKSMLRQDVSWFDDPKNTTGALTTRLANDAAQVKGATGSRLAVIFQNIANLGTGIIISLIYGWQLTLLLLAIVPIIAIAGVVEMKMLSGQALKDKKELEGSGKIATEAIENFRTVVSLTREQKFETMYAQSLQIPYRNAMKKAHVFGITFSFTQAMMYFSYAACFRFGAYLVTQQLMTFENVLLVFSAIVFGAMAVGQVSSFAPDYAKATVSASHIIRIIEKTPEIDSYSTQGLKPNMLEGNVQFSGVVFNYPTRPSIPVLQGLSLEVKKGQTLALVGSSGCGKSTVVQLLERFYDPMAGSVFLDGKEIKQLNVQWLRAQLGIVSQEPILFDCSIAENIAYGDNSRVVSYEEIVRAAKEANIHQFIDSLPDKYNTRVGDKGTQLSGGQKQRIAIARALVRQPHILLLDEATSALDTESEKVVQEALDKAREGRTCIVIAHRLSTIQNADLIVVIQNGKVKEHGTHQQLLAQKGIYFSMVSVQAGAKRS
# T2 sequence (P62813 28-455): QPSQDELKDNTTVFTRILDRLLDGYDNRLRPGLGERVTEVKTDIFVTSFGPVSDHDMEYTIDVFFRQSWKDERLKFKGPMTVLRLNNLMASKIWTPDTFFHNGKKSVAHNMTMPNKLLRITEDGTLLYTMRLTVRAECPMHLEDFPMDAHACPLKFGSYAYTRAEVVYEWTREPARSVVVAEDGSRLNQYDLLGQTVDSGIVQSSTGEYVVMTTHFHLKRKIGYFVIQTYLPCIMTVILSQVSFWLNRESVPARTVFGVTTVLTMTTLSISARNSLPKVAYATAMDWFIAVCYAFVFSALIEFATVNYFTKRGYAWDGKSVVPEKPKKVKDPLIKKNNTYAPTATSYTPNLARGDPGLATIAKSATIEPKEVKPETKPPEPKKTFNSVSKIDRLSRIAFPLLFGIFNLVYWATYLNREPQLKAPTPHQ
# T2 sequence (P63138 25-474 limits assumed): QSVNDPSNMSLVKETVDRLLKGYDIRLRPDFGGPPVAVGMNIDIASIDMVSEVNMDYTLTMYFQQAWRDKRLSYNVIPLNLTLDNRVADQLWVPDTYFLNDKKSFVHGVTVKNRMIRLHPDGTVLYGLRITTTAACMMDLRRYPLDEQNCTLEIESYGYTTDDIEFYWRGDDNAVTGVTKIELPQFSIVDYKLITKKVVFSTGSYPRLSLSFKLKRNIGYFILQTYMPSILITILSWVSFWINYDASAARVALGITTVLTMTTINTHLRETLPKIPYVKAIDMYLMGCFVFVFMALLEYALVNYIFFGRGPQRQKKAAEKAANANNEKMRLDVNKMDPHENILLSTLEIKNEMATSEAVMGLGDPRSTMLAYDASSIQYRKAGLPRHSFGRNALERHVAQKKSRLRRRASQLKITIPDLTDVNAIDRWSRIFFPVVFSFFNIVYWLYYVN
# T2 sequence (P18508 39-466): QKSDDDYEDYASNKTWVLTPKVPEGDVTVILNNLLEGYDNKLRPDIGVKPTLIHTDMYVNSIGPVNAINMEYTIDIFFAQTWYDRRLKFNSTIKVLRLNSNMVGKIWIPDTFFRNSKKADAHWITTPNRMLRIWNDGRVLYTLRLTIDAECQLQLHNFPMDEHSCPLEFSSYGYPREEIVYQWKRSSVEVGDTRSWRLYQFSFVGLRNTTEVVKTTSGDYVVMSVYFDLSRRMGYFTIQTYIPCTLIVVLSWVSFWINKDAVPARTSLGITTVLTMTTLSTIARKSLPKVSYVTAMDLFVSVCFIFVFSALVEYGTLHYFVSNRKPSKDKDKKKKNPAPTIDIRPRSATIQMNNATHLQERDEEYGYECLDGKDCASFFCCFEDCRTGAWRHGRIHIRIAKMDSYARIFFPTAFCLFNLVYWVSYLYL
compound,measurement,setting,value
COc1ccc(CCN(C)CCCC(C#N)(c2ccc(OC)c(OC)c2)C(C)C)cc1OC (stereo not shown) [verapamil],RF,[1],2.1
same,effect of the agent alone on the development of C. elegans,[1],had no effects
ivermectin,Cmax: concentration to obtain maximum inhibitory effect,murine Pgp (mdr1a),5.0 µM
same,Emax: maximum effect compared to maximum effect obtained with 5 μM of valspodar,murine Pgp (mdr1a),88.0 % valspodar ®
same,EC50,murine Pgp (mdr1a); [7],0.5 µM
same,EC50,[2],0.6 µM
same,EC50,[3]; listed as IVM,0.0293 ± 0.0034 µM
same,EC50,[3],0.029 µM
same,RF (IC50 for toxic drug alone/IC50 for toxic drug in the presence of compound),[4]; DC-3F/ADX cells,45
same,toxicity of actinomycin D when combined with the compound,[4]; DC-3F/ADX cells,became toxic
same,IC50 of IVM alone,"[1]; C. elegans IVR10, egg to gravid adult, 96 h",6.8 ± 0.2 ng/mL
same,IC50,"[1]; C. elegans IVR10, egg to gravid adult, 96 h, read-out: IC50 of IVM alone",0.0078 ± 0.0002 µM
same,concentration blocking the development of C. elegans IVR10 eggs,[1]; IVM alone,~10 nM
"CO/N=C1\C[C@]2(C[C@@H]3C[C@@H](C/C=C(\C)C[C@@H](C)/C=C/C=C4\CO[C@@H]5[C@H](O)C(C)=C[C@@H](C(=O)O3)[C@]45O)O2)O[C@H](/C(C)=C/C(C)C)[C@H]1C [MOX, moxidectin]",EC50,[3],0.0056 ± 0.0015 µM
"CC[C@]1(O)C[C@@H]2CN(CCc3c([nH]c4ccccc34)[C@@](C(=O)OC)(c3cc4c(cc3OC)N(C)[C@H]3[C@@](O)(C(=O)OC)[C@H](OC(C)=O)[C@]5(CC)C=CCN6CC[C@]43[C@@H]65)C2)C1 [VBL, vinblastine]",viability of CEM/VBL cells in vinblastine alone,[5],fully viable
same,sensitivity of parental cells to VBL,[6],highly sensitive
"CCC(C)C1OC2(CCC1C)CC1CC(CC=C(C)C(O)C(C)C=CC=C3COC4C(O)C(C)=CC(C(=O)O1)C34O)O2 (stereo not shown) [Ivermectin aglycone, 22,23-dihydroavermectin B1 aglycone]",Cmax: concentration to obtain maximum inhibitory effect,murine Pgp (mdr1a),10.0 µM
same,Emax: maximum effect compared to maximum effect obtained with 5 μM of valspodar,murine Pgp (mdr1a),80.0 % valspodar ®
same,Cmax: concentration to obtain maximum inhibitory effect,murine Pgp (mdr1a); listed as ivermectin aglycone,about 10 μM
same,EC50,"murine Pgp (mdr1a); Table 1, read-out: EC50: effective concentration for inhibiting 50% of transport of rhodamine 123 by murine Pgp",1 µM
same,EC50,murine Pgp (mdr1a); [7],2.5 µM
same,EC50,[2],0.5 µM
same,inhibitory potency for parasite HcPgpA relative to mammalian Pgp,"[2]; ratio of EC50 murine Pgp / HcPgpA, 120 min",5 times
same,EC50,[3],0.215 µM
same,"agonist strength at GABA receptors, in words",[3],weak agonist
same,toxicity in words,Mdr1ab−/− mice,does not show any toxicity
same,RF (IC50 for toxic drug alone/IC50 for toxic drug in the presence of compound),[4]; DC-3F/ADX cells,62
same,toxicity of actinomycin D when combined with the compound,[4]; DC-3F/ADX cells,became toxic
same,RF,[1],1.5
same,effect of the agent alone on the development of C. elegans,[1],had no effects
CCC(C)C1OC2(CCC1C)CC1CC(CC=C(C)C(OC3CC(OC)C(O)C(C)O3)C(C)C=CC=C3COC4C(O)C(C)=CC(C(=O)O1)C34O)O2 (stereo not shown) [IVM Monosaccharide],EC50,[3],0.122 µM
same,"agonist strength at GABA receptors, in words",[3],weak agonist
"Cc1c2oc3c(C)ccc(C(=O)N[C@@H]4C(=O)N[C@H](C(C)C)C(=O)N5CCC[C@H]5C(=O)N(C)CC(=O)N(C)[C@@H](C(C)C)C(=O)O[C@@H]4C)c3nc-2c(C(=O)N[C@@H]2C(=O)N[C@H](C(C)C)C(=O)N3CCC[C@H]3C(=O)N(C)CC(=O)N(C)[C@@H](C(C)C)C(=O)O[C@@H]2C)c(N)c1=O [ActD, actinomycin D] (I: T[dV]P[Sar][NMeV] / II: T[dV]P[Sar][NMeV]; ester I:1-I:C, II:1-II:C; linker I:N-II:N via Actinocin(9to1))",DC-3F/ADX viability with actinomycin D alone,[4]; 1 μM actinomycin D,not altered
same,IC50,"[4]; DC-3F/ADX cells, MTT, read-out: IC50 of actinomycin D alone",5 µM
